One data set deals with DU145 cells. The experiment in a line: Anti-proliferative activity on DU145 in complete medium. The data set is classed as cell-based. The conditions noted are these: DU145 (no androgen receptor), 144 h, up to 10,000 nM, Cell-Titer-Glow. Here is the method: It is used to evaluate the selectivity of the compounds for androgen receptor expressing cells. No activity of the compounds is expected. • The cells of the DU145 line (ATCC HTB-81) are seeded at 800 cells/well in 90 μl of complete medium in 96-well plates coated with poly-D-lysine (Biocoat, Costar). • Treatment of the cells: 24 h after the seeding, the cells are treated with 10 μl/well of compound diluted in the culture medium. The concentrations used are the following: 1 nM/10/30/100/300/1000/3000/10,000 nM. The cells are incubated for 144 h at 37° C., 5% CO2. • Reading: After incubation for 6 days, cell proliferation was determined by Cell-Titer-Glow (CTG) Luminescent Cell Viability Assay • Results: The experiments are carried out in duplicate and the best compounds are tested twice. A concentration value inhibiting the cell proliferation by 50% (IC50) is calculated.

Another data set can be described thus: Evaluation of solubility. The data set is classed as physicochemical. The note with it: aqueous buffer, kinetic from dmso stock; 100 mM potassium phosphate buffer pH 7.4, 0.1% DMSO, target 100 μM, 1 hour room temperature, LC-MS/MS. Here is the method:
Test compounds were prepared as stock solutions at 100 mM in DMSO. The stock solutions were diluted, in duplicate, into 100 mM potassium phosphate buffer (pH 7.4) to a target concentration of 100 μM with a final DMSO concentration of 0.1%. The solutions were shaken at 1000 rpm for 1 hour at room temperature followed by centrifugation for 10 minutes at 1200 rpm to precipitate un-dissolved particles. The supernatants were transferred to new tubes and the samples were further prepared as follows: • Undiluted: 5 μL of supernatant to 95 μL of ACN containing internal standard (IS) • 1:10 diluted: 10 μL of the supernatant into 90 μL K-buffer, mix, then transfer 5 μL of 1:10 diluted samples to 95 μL ACN containing IS • 1:100 diluted: 10 μL of the supernatant into 990 μL K-buffer, mix, then transfer 5 μL of 1:100 diluted samples to 95 μL of ACN containing IS
Samples (undiluted, 1:10 diluted, and 1:100 diluted) along with the standards were analyzed by LC-MS/MS.

The test system of the next data set is LNCaP cells. Kind of data set: Anti-proliferative activity on LNCaP in complete medium. The data set is classed as cell-based. The conditions noted are these: Homo sapiens, 144 h. Here is the method:
The anti-proliferative activity of the compounds of the present invention is determined on LNCaP in complete medium by applying the following experimental procedure:
The LNCaP cell type (ATCC, 1740) originates from a prostate carcinoma. This line expresses the androgen receptor and is hormone-dependent.
Maintenance of the LNCaP line is carried out in complete culture medium: RPMI, 10% of fetal calf serum, 2 mM glutamine, 100 U/ml penicillin, 0.1 mg/ml of streptomycin and 0.01M HEPES, 1 mM sodium pyruvate, […]. • Seeding the plates:
The LNCaP line is seeded at 20,000 cells/well in 90 μl of complete medium in 96-well plates coated with poly-D-lysine (Biocoat, Costar). • Treatment of the cells: 24 h after the seeding, the cells are treated with 10 μl/well of compound diluted in the culture medium. The concentrations used are the following: 1 nM/10/30/100/300/1000/3000/10,000 nM. The cells are incubated for 144 h at 37° C., 5% CO2. • Reading: After incubation for 6 days, cell proliferation was determined by Cell-Titer-Glow (CTG) Luminescent Cell Viability Assay. • Results: The experiments are carried out in duplicate and the best compounds are tested twice. […] Anti-Proliferative Activity on DU145 in Complete Medium

Where [1] appears, read: read-out: IC50 on the LNCaP cells in culture (inhibition of cell proliferation by 50%), LNCaP, complete medium, 144 h incubation, Cell-Titer-Glow.
Setting [2] is: complete medium, 144 h incubation, Cell-Titer-Glow, read-out: IC50 on the LNCaP cells in culture (inhibition of cell proliferation by 50%).

Each structure is given as a SMILES string. ≈ marks a conversion by molar mass, not a printed value. Like-named read-outs stand apart in the source and are kept apart here.

For `CC1(C)C(=O)N(c2cnc(C#N)c(C(F)(F)F)c2)C(=O)N1C/C=C\Cn1cc(-c2ccc(S(C)(=O)=O)c(C(F)(F)F)c2)cn1` [Example 4, (Z)-5-(4,4-dimethyl-3-(4-(4-(4-(methylsulfonyl)-3-(trifluoromethyl)phenyl)-1H-pyrazol-1-yl)but-2-en-1-yl)-2,5-dioxoimidazolidin-1-yl)-3-(trifluoromethyl)picolinonitrile], the “IC50 on DU145 cells (anti-proliferative effect)” value (“IC50 on DU145 cells” for short) with DU145 cells is given as “no measurable IC50”. Also, in the data set “Evaluation of solubility”, the solubility at 1 h came to 1.7 µM (≈ 1.09 µg/mL).
Regarding `CC1(C)C(=O)N(c2cnc(C#N)c(C(F)(F)F)c2)C(=O)N1C/C=C\Cn1cc(-c2ccc(S(C)(=O)=O)c(Cl)c2)cn1` [Example 5, (Z)-5-(3-(4-(4-(3-chloro-4-(methylsulfonyl)phenyl)-1H-pyrazol-1-yl)but-2-en-1-yl)-4,4-dimethyl-2,5-dioxoimidazolidin-1-yl)-3-(trifluoromethyl)picolinonitrile], in the data set with DU145 cells, the “IC50 on DU145 cells” value is recorded as “no measurable IC50”. Moreover, the solubility at 1 h in “Evaluation of solubility” amounted to 0.65 µM (≈ 0.395 µg/mL).
For the molecule `CC1(C)C(=O)N(c2ccc(C#N)c(C(F)(F)F)c2)C(=O)N1C/C=C\CN1CCN(c2ccc(S(C)(=O)=O)c(Cl)c2)S1(=O)=O` [Example 17, (Z)-4-(3-(4-(5-(3-chloro-4-(methylsulfonyl)phenyl)-1,1-dioxido-1,2,5-thiadiazolidin-2-yl)but-2-en-1-yl)-4,4-dimethyl-2,5-dioxoimidazolidin-1-yl)-2-(trifluoromethyl)benzonitrile], the IC50 with LNCaP cells (setting [1]) is below 1500 nM. Moreover, the “IC50 on DU145 cells” value in the data set with DU145 cells is listed as “no measurable IC50”. Further, the solubility at 1 h in the data set “Evaluation of solubility” was found to be 1.97 µM (≈ 1.3 µg/mL).
As for `CC1(C)CN(c2ccc(C#N)c(C(F)(F)F)c2)C(=O)N1C/C=C\CN1C(=O)N(c2ccc(S(C)(=O)=O)c(C(F)(F)F)c2)C(=O)C1(C)C` [Example 9, (Z)-4-(3-(4-(5,5-dimethyl-3-(4-(methylsulfonyl)-3-(trifluoromethyl)phenyl)-2,4-dioxoimidazolidin-1-yl)but-2-en-1-yl)-4,4-dimethyl-2-oxoimidazolidin-1-yl)-2-(trifluoromethyl)benzonitrile], the IC50 with LNCaP cells (setting [1]) is below 1500 nM. Besides, the “IC50 on DU145 cells” value in the data set on DU145 cells is given as “no measurable IC50”.
As to `Cc1nn(C/C=C\CN2C(=O)N(c3ccc(C#N)c(C(F)(F)F)c3)C(=O)C2(C)C)c(C)c1-c1ccc(S(C)(=O)=O)c(C(F)(F)F)c1` [Example 6, (Z)-4-(3-(4-(3,5-dimethyl-4-(4-(methylsulfonyl)-3-(trifluoromethyl)phenyl)-1H-pyrazol-1-yl)but-2-en-1-yl)-4,4-dimethyl-2,5-dioxoimidazolidin-1-yl)-2-(trifluoromethyl)benzonitrile], the “IC50 on DU145 cells” value with DU145 cells is “no measurable IC50”. The molecule further gave a solubility at 1 h in the data set “Evaluation of solubility” of 4.38 µM (≈ 2.92 µg/mL).
As to `CC1(C)CN(c2ccc(S(C)(=O)=O)c(C(F)(F)F)c2)C(=O)N1C/C=C\CN1C(=O)N(c2ccc(S(C)(=O)=O)c(Cl)c2)C(=O)C1(C)C` [Example 8, (Z)-3-(3-chloro-4-(methylsulfonyl)phenyl)-1-(4-(5,5-dimethyl-3-(4-(methylsulfonyl)-3-(trifluoromethyl)phenyl)-2-oxoimidazolidin-1-yl)but-2-en-1-yl)-5,5-dimethylimidazolidine-2,4-dione], in the data set with DU145 cells, the “IC50 on DU145 cells” value was “no measurable IC50”.
On to `CC1(C)C(=O)N(c2ccc(C#N)c(C(F)(F)F)c2)C(=O)N1C/C=C\Cn1cc(-c2ccc(C#N)c(C(F)(F)F)c2)nn1` [Example 22, (Z)-4-(3-(4-(4-(4-cyano-3-(trifluoromethyl)phenyl)-1H-1,2,3-triazol-1-yl)but-2-en-1-yl)-4,4-dimethyl-2,5-dioxoimidazolidin-1-yl)-2-(trifluoromethyl)benzonitrile], for which the IC50 with LNCaP cells (setting [2]) was below 1500 nM.
Regarding `CC1(C)CN(c2ccc(S(C)(=O)=O)c(C(F)(F)F)c2)C(=O)N1C/C=C\CN1C(=O)N(c2ccc(C#N)c(C(F)(F)F)c2)C(=O)C1(C)C` [Example 7, (Z)-4-(3-(4-(5,5-dimethyl-3-(4-(methylsulfonyl)-3-(trifluoromethyl)phenyl)-2-oxoimidazolidin-1-yl)but-2-en-1-yl)-4,4-dimethyl-2,5-dioxoimidazolidin-1-yl)-2-(trifluoromethyl)benzonitrile], the IC50 with LNCaP cells (setting [2]) was below 1500 nM. Also, the “IC50 on DU145 cells” value with DU145 cells is “no measurable IC50”.
With `CC1(C)C(=O)N(c2ccc(C#N)c(C(F)(F)F)c2)C(=O)N1C/C=C\Cn1cnc(-c2ccc(S(C)(=O)=O)c(C(F)(F)F)c2)c1` [Example 18, (Z)-4-(4,4-dimethyl-3-(4-(4-(4-(methylsulfonyl)-3-(trifluoromethyl)phenyl)-1H-imidazol-1-yl)but-2-en-1-yl)-2,5-dioxoimidazolidin-1-yl)-2-(trifluoromethyl)benzonitrile], the IC50 in the data set with LNCaP cells (setting [2]) was below 1500 nM.
Consider `CC1(C)C(=O)N(c2ccc(S(C)(=O)=O)c(Cl)c2)C(=O)N1C/C=C\CN1CCC(O)(c2ccc(C#N)c(C(F)(F)F)c2)C1` (stereo not drawn) [Example 16, (Z)-4-(1-(4-(3-(3-chloro-4-(methylsulfonyl)phenyl)-5,5-dimethyl-2,4-dioxoimidazolidin-1-yl)but-2-en-1-yl)-3-hydroxypyrrolidin-3-yl)-2-(trifluoromethyl)benzonitrile], for which the IC50 with LNCaP cells (setting [2]) was below 1500 nM. Further, the “IC50 on DU145 cells” value with DU145 cells is reported as “no measurable IC50”.
On to `CC1(C)C(=O)N(c2ccc(S(C)(=O)=O)c(C(F)(F)F)c2)C(=O)N1C/C=C\CN1CC(c2ccc(S(C)(=O)=O)c(C(F)(F)F)c2)CC1=O` (stereo not drawn) [Example 15, (Z)-5,5-dimethyl-3-(4-(methylsulfonyl)-3-(trifluoromethyl)phenyl)-1-(4-(4-(4-(methylsulfonyl)-3-(trifluoromethyl)phenyl)-2-oxopyrrolidin-1-yl)but-2-en-1-yl)imidazolidine-2,4-dione], for which the IC50 with LNCaP cells (setting [2]) was below 1500 nM. The “IC50 on DU145 cells” value in the data set on DU145 cells is “no measurable IC50”. The same molecule showed a solubility at 1 h in the data set “Evaluation of solubility” of 1.9 µM (≈ 1.34 µg/mL).
On to `CC1(C)C(=O)N(c2ccc(C#N)c(C(F)(F)F)c2)C(=O)N1C/C=C\Cn1cc(-c2ccccc2)nn1` [Example 19, (Z)-4-(4,4-dimethyl-2,5-dioxo-3-(4-(4-phenyl-1H-1,2,3-triazol-1-yl)but-2-en-1-yl)imidazolidin-1-yl)-2-(trifluoromethyl)benzonitrile], for which the IC50 in the data set on LNCaP cells (setting [2]) is below 1500 nM.
For the molecule `CC1(C)C(=O)N(c2ccc(C#N)c(C(F)(F)F)c2)C(=O)N1C/C=C\Cn1cc(-c2ccc(C#N)c(C(F)(F)F)c2)cn1` [Example 1, (Z)-4-(3-(4-(4-(4-cyano-3-(trifluoromethyl)phenyl)-1H-pyrazol-1-yl)but-2-en-1-yl)-4,4-dimethyl-2,5-dioxoimidazolidin-1-yl)-2-(trifluoromethyl)benzonitrile], in the data set with DU145 cells, the “IC50 on DU145 cells” value is listed as “no measurable IC50”.
For the molecule `CC1(C)C(=O)N(c2ccc(C#N)c(C(F)(F)F)c2)C(=O)N1C/C=C\CN1CCN(c2ccc(S(C)(=O)=O)c(Cl)c2)C1=O` [Example 11, (Z)-4-(3-(4-(3-(3-chloro-4-(methylsulfonyl)phenyl)-2-oxoimidazolidin-1-yl)but-2-en-1-yl)-4,4-dimethyl-2,5-dioxoimidazolidin-1-yl)-2-(trifluoromethyl)benzonitrile], in the data set on LNCaP cells (setting [1]), the IC50 was below 1500 nM. In the data set on DU145 cells, the “IC50 on DU145 cells” value is “no measurable IC50”. The solubility at 1 h in “Evaluation of solubility” was 0.34 µM (≈ 0.212 µg/mL).
Consider `CC1(C)C(=O)N(c2ccc(S(C)(=O)=O)c(C(F)(F)F)c2)C(=O)N1C/C=C\Cn1cc(-c2ccc(C#N)c(C(F)(F)F)c2)cn1` [Example 2, (Z)-4-(1-(4-(5,5-dimethyl-3-(4-(methylsulfonyl)-3-(trifluoromethyl)phenyl)-2,4-dioxoimidazolidin-1-yl)but-2-en-1-yl)-1H-pyrazol-4-yl)-2-(trifluoromethyl)benzonitrile], for which, in the data set on DU145 cells, the “IC50 on DU145 cells” value is on record as “no measurable IC50”.

The solubility is the dissolved amount per volume that the medium holds.

Source of the values: patent US9975880B2, “Imidazolidine-2,4-dione dervatives” (IPSEN PHARMA S.A.S., priority 2013, dated 2018).
